Assay results reported in patent publication US4124577A, “Nonapeptides and methods for their production” (Warner-Lambert, priority 1977, dated 1978).

System: LRF (luteinizing hormone releasing factor) induced luteinizing hormone (LH) release
Experiment: In vitro LRF antagonist test in rat anterior pituitary cell cultures
Format: cell-based
Text: Nonapeptides of this invention were screened for LRF antagonist activity in vitro using rat anterior pituitary cell cultures as described by Vale et. al. [Endocrinology, 91, 562 (1972)]. The inhibition of LRF (luteinizing hormone releasing factor) induced luteinizing hormone (LH) release into the culture medium is the endpoint in this in vitro bioassay.

Substance	LH released into culture medium (LRF alone, molar conc. 5×10^-10 (saline control 16.22))	LH released into culture medium (compound molar conc. 1×10^-7, LH released into culture medium, LRF control 5×10^-10)	% LH Release Inhibition (compound molar conc. 1×10^-7, LRF control 5×10^-10)	LH released into culture medium (compound molar conc. 1×10^-8, LH released into culture medium, LRF control 5×10^-10)	% LH Release Inhibition (compound molar conc. 1×10^-8, LRF control 5×10^-10)
LRF: luteinizing hormone releasing factor, formed in the hypothalamus, stimulates the secretion of luteinizing hormone from the anterior pituitary (QHWSYGLRPG; Gonadoliberin-1; UniProt P01148 24-33, looked up) [reference compound]	80.93 ng/mL	–	–	–	–
N^α -t-butoxycarbonyl-N^im -benzyl-L-histidyl-L-tryptophyl-O-benzyl-L-seryl-O-benzyl-L-tyrosyl-D-phenylalanyl-L-leucyl-N^G -[(4-methylphenyl)sulfonyl]-L-arginyl-L-prolyl-glycinamide	–	24.91 ng/mL	87%	52.47 ng/mL	44%
